From BindingDB's records for doi:10.7270/Q2NC5ZS3 (Burnham Center For Chemical Genomics, 2012) come the findings set out here.

For the assay, the target named is T1, Corticotropin-releasing factor-binding protein (Homo sapiens, UniProt P24387).
T1 sequence (P24387 whole entry): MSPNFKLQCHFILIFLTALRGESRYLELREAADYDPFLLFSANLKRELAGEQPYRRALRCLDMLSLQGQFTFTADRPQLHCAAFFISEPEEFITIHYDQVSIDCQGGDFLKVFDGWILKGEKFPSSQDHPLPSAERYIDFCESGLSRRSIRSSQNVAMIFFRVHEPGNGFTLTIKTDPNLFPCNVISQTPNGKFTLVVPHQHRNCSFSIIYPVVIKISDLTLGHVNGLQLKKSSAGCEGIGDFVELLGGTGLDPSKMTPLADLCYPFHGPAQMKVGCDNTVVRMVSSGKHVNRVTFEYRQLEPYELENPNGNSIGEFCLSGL
By IC50 is commonly meant the concentration needed to halve the response being measured. In turn, `COc1ccc(/C=N/OCC(=O)NNC2=c3cc(Br)ccc3=NC2=O)cc1` [MLS000587830] yielded an IC50 of more than 20 µM.

In the case of `O=NCc1ccc(Oc2ccc(F)cc2)c([N+](=O)[O-])c1` [N-[[4-(4-fluorophenoxy)-3-nitrophenyl]methylidene]hydroxylamine], the IC50 is 17.5 µM.

The compound `CN1c2ccccc2C(=O)C(C(=S)Nc2ccc(Cl)cc2)S1(=O)=O` (centres undefined) [N-(4-chlorophenyl)-4-hydroxy-1-methyl-2,2-dioxo-1,2-dihydro-2lambda~6~,1-benzothiazine-3-carbothioamide] gave an IC50 of more than 20 µM.

In turn, `COc1ccc(C(C)N=Nc2ccc([N+](=O)[O-])cc2S(=O)(=O)Nc2ccccc2C(=O)O)c(OC)c1` (centres undefined) [MLS002249507] yielded an IC50 of 9.4 µM.

The compound `N#CC(C(=O)COc1ccc(Cl)cc1)c1nc2ccccc2s1` (centres undefined) showed an IC50 of more than 20 µM.

In the case of `COC(=O)c1ccc(C(=O)C(C#N)c2nc3ccccc3s2)cc1` (centres undefined) [4-[(2Z)-2-(3H-1,3-benzothiazol-2-ylidene)-2-cyano-1-oxoethyl]benzoic acid methyl ester], the IC50 was more than 20 µM.

In turn, `Cc1cc(=O)oc2c1ccc1oc(C(N=O)c3ccccc3)c(C)c12` (centres undefined) [4,9-dimethyl-8-(N-oxidanyl-C-phenyl-carbonimidoyl)furo[2,3-h]chromen-2-one] displayed an IC50 of more than 20 µM.

`N#CC(C(=O)Cc1cccc2ccccc12)c1nc2ccccc2s1` (centres undefined) [(2Z)-2-(3H-1,3-benzothiazol-2-ylidene)-4-naphthalen-1-yl-3-oxobutanenitrile] came in with an IC50 of 11.3 µM.

For the compound `Cc1ccc(S(=O)(=O)N(CC(=O)NNC2=c3ccccc3=NC2=O)c2ccc(C)c(C)c2)cc1` [SMR000207608], the IC50 is more than 20 µM.

The compound `Cn1c(O)c(N=Nc2ccc([N+](=O)[O-])cc2)sc1=S` [MLS002608645] registered an IC50 of 1 µM.

Compound `Cc1ccc2nc(N3C(=O)C(=O)C(C(=O)c4ccc(C)o4)C3c3cccc(O)c3)sc2c1` (centres undefined) [4-hydroxy-2-(3-hydroxyphenyl)-1-(6-methyl-1,3-benzothiazol-2-yl)-3-(5-methylfuran-2-carbonyl)-2H-pyrrol-5-one] registered an IC50 of 10.4 µM.

Consider `O=C(O)c1ccc(CN=Nc2cccc(C(F)(F)F)c2)cc1`, for which the IC50 is more than 20 µM.

For the compound `Cc1ccc(-n2[nH]c(C)c(CN=Nc3ccc([N+](=O)[O-])cc3[N+](=O)[O-])c2=O)cc1` [SMR000171521], the IC50 is 15.5 µM.

`Cc1ccc2nc(N3C(=O)C(=O)C(C(=O)c4ccco4)C3c3cccc(O)c3)sc2c1` (centres undefined) yielded an IC50 of more than 20 µM.
